According to patent US10702526B2, “Inhibitors of immune checkpoint modulators and related methods” (eFFECTOR Therapeutics, Inc., priority 2015, dated 2020):

How the values were obtained:
Jurkat cells = assay: Jurkat T cell viability (fixable dead cell stain); format: cell-based; details: Jurkat T cell assay, MNK-specific inhibitors
Protocol: (§1) To examine the effect of MNK-specific inhibitors on PD-1 expression, Jurkat cells (Clone E6.1, ATCC, transformed T cells) were used, which express PD-1 when activated through T cell receptor (TCR) signaling. Briefly, Jurkat cells were grown in 1×RPMI with 1× Pen/Strep, and 10% FBS, then about 3×10^6 Jurkat cells were activated in presence of 1 μg/mL PHA (Sigma) and 50 ng/mL PMA (Sigma). Test Cells were treated simultaneously with various concentrations of MNK-specific inhibitor Compound 107 (0, 0.01, 0.1, 1, 3 and 10 μM). After 48 hours, culture supernatants were harvested and examined via sandwich ELISA for the presence of IL-2 using human IL-2 ELISA DuoSet® (R&D Systems, Minneapolis, Minn.). The level of PD-1 on Jurkat cells was examined by incubating cells with fixable dead cell stain (1:20,000; BD Biosciences, San Jose, Calif.) for 15 minutes at 4° C., washed twice with flow staining buffer (1×PBS, 4% FBS and 1 mM EDTA), incubated with human FcR block, then contacted with allophycocyanin (APC) conjugated anti-PD-1 antibody (Biolegend, San Diego, Calif.) for 30 minutes at 4° C., washed two times with flow buffer, and finally cells were fixed with fixation buffer for 20 minutes at 4° C. After fixation, cells were washed twice with flow buffer and re-suspended in flow buffer and assessed for fluorescence using BD Accuri C6 flow cytometer. Data were analyzed using the C6 cytometer software (BD Biosciences, San Jose, Calif.).

[1] = system: PD-1 expression on Jurkat cells; assay: PD-1 expression on PHA/PMA-activated Jurkat T cells (flow cytometry); format: cell-based, human; details: Jurkat T cell assay, MNK-specific inhibitors
Protocol: as §1

[2] = system: IL-10 production in primary T cells; assay: IL-10 production by activated primary T cells; format: cell-based, human

| SMILES | Cell Death (Jurkat cells) | % PD-1 + Inhibition [1] | % IL-10 Inhibition [2] |
| --- | --- | --- | --- |
| Cc1cc(Nc2cc(N)ncn2)c(=O)n2c1C(=O)NC21CCCC1.Cl [Compound 98] | − (− = 0-10%) | +++ (+++ = 50-75%) |  |
| Cc1cc(Nc2ncnc(N)c2C)cc2c1C(=O)NC21CCCCC1 [Compound 440] | − (− = 0-10%) | ++++ (++++ = 75-100%) |  |
| Cc1cc(Nc2ncnc(N)c2Cl)cc2c1C(=O)NC21CCCCC1 [Compound 462] | + (+ = 10-25%) | ++++ (++++ = 75-100%) |  |
| Cc1cc(Nc2ncnc(N)c2Cl)c(=O)n2c1C(=O)NC21CCCCC1 [Compound 474] | − (− = 0-10%) | +++ (+++ = 50-75%) | ++++ (++++ = 75-100%) |
| Cc1cc(Nc2ncnc(N)c2C)c(=O)n2c1C(=O)NC21CCN(CC(F)F)CC1 [Compound 590] | − (− = 0-10%) | ++ (++ = 25-50%) | ++++ (++++ = 75-100%) |
| Cc1cc(Nc2ncnc(N)c2Cl)c(=O)n2c1C(=O)NC21CCN(CC(F)F)CC1 [Compound 611] | − (− = 0-10%) | ++ (++ = 25-50%) |  |
| Cc1cc(Nc2ncnc(N)c2C)nc2c1C(=O)NC21CCCCC1 [Compound 622] | − (− = 0-10%) | ++++ (++++ = 75-100%) |  |
| Cc1cc(Nc2ncnc(N)c2Cl)nc2c1C(=O)NC21CCCCC1 [Compound 624] | + (+ = 10-25%) | ++++ (++++ = 75-100%) |  |
| Cc1cc(Nc2ncnc(N)c2C)c(=O)n2c1C(=O)NC21CCOCC1 [Compound 626] | − (− = 0-10%) | ++ (++ = 25-50%) |  |
| Cc1cc(Nc2ncnc3[nH]ccc23)cc2c1C(=O)NC21CCCCC1 [Compound 637] | ++ (++ = 25-50%) | ++++ (++++ = 75-100%) |  |
| Cc1cc(-n2ccc3c(N)ncnc32)nc2c1C(=O)NC21CCCCC1 [Compound 652] | − (− = 0-10%) | ++++ (++++ = 75-100%) |  |
| Cc1cc(Nc2ncnc(N)c2Cl)c(=O)n2c1C(=O)NC21CCCNC1 (stereo not shown) [Compound 750] | − (− = 0-10%) | +++ (+++ = 50-75%) | ++++ (++++ = 75-100%) |
| Cc1cc(Nc2ncnc(N)c2Cl)c(=O)n2c1C(=O)NC21CCN(C2CC2)CC1 [Compound 752] | − (− = 0-10%) | − (− = 0-10%) |  |
| Cc1cc(Nc2ncnc(N)c2C)c(=O)n2c1C(=O)NC21CCN(CCC(F)(F)F)CC1 [Compound 753] | − (− = 0-10%) | − (− = 0-10%) |  |
| Cc1cc(Nc2ncnc(N)c2Cl)c(=O)n2c1C(=O)NC21CCN(CCC(F)(F)F)CC1 [Compound 775] | − (− = 0-10%) | − (− = 0-10%) |  |
| CCCN1CCC2(CC1)NC(=O)c1c(C)cc(Nc3ncnc(N)c3Cl)c(=O)n12 [Compound 776] | − (− = 0-10%) | + (+ = 10-25%) |  |
| Cc1cc(Nc2ncnc(N)c2OCCN)c(=O)n2c1C(=O)NC21CCCCC1 [Compound 827] | − (− = 0-10%) | ++ (++ = 25-50%) |  |
| Cc1cc(Nc2ncnc(N)c2C)c(=O)n2c1C(=O)NC21CCCN(C)C1 (stereo not shown) [Compound 917] | + (+ = 10-25%) | ++ (++ = 25-50%) |  |
| Cc1cc(Nc2ncnc(N)c2Cl)c(=O)n2c1C(=O)N[C@]21CCCNC1 [Compound 969] | − (− = 0-10%) | +++ (+++ = 50-75%) |  |
| Cc1cc(Nc2ncnc(N)c2Cl)c(=O)n2c1C(=O)N[C@@]21CCCNC1 [Compound 970] | − (− = 0-10%) | +++ (+++ = 50-75%) |  |
| Cc1cc(Nc2ncnc(N)c2Cl)c(=O)n2c1C(=O)NC21CCN(C)CC1(C)C (stereo not shown) [Compound 1008] | ++ (++ = 25-50%) | +++ (+++ = 50-75%) |  |
| Cc1cc(Nc2ncnc(N)c2Cl)c(=O)n2c1C(=O)NC21CC(C)N(C)C(C)C1 (stereo not shown) [Compound 1031] | +++ (+++ = 50-75%) | +++ (+++ = 50-75%) |  |
| Cc1cc(Nc2ncnc(N)c2Cl)c(=O)n2c1C(=O)NC21CCN(C)C(C)(C)C1 (stereo not shown) [Compound 1053] | − (− = 0-10%) | + (+ = 10-25%) |  |
| Cc1cc(Nc2ncnc(N)c2Cl)c(=O)n2c1C(=O)NC21CNCCC1(C)C (stereo not shown) [Compound 1090] | + (+ = 10-25%) | +++ (+++ = 50-75%) |  |
| Cc1cc(Nc2ncnc(N)c2C)c(=O)n2c1C(=O)NC21CNCCC1(C)C (stereo not shown) [Compound 1091] | − (− = 0-10%) | ++ (++ = 25-50%) |  |
| Cc1cc(Nc2ncnc(N)c2C)c(=O)n2c1C(=O)NC21CCN(CC(F)F)CC1(C)C (stereo not shown) [Compound 1092] | − (− = 0-10%) | ++ (++ = 25-50%) |  |
